Key:
rat brain VMAT2 = target: T1, rat brain VMAT2 (Rattus norvegicus, UniProt Q01827); test: VMAT2 binding assay (inhibition of [3H]HTBZ binding); conditions: ratio of Ki vs HTBZ
T1 construct: the whole rat brain (excluding the cerebellum) or striatal were homogenized; tissue Eurofins Panlabs (assay performed by); host or cells: rat brain (without cerebellum) or striatum, synaptic vesicle suspension
Protocol: In brief, the whole rat brain (excluding the cerebellum) or striatal were homogenized in 20 ml of ice-cold sucrose solution (0.32 M). […] The samples were centrifuged at 20,000 g at 4°C for 20 min, then 20 ml of MgSO4 solution (1 mM) was added to the supernatant.
A 96-well plate was used for the assay in duplicate. […] Samples were preincubated for 30 min at room temperature. […] All reactions were terminated using vacuum filtration over a GF/B glass fiber filter pretreated with 0.5% BSA. […] Radioactivity retained on the filters was determined by liquid scintillation counter. […] IC50 values were determined by a nonlinear least-squares regression analysis and Ki was calculated.

[1] = test system: locomotor activity of rats; test: Dose-dependent effects on locomotor activity in rats; type: in vivo, rat; conditions: for reduction rate (RR) of locomotion: 0.5-[…] after dosing
Protocol: Before administration, animals were transported to the test room and allowed to acclimate for at least 1 h. Immediately after drug administration, rats were placed into activity chambers to assess their basal locomotor activity using the TopScan monitoring system. The total travel distance was recorded from 0.5 to 1.5 h after administration in intervals of 10 min.

[2] = PK in dogs after single oral or intravenous dose; type: in vivo, dog
Protocol: Male beagle dogs were randomly divided into four groups. […] The dogs were fasted for 12 h before treatment and 4 h after treatment, but they were granted free access to water. Blood was collected from the vein before administration and 0.083 (only for injection groups), 0.25, 0.5, 1, 2, 3, 4, 6, 8, 12 and 24 h, and placed it in heparinized tubes, and centrifuged it at 8,000 rpm for 10 min at 4°C to separate the plasma, which we stored at −20 °C until analysis. The plasma samples were pretreated by protein precipitation with acetonitrile and quantitated by the validated LC-MS/MS (Shimadzu Exion-Triple Quad 4500) method.
The system consisted of an Exion UHPLC system (Shimadzu, Japan) and a Triple Quad 4500 mass spectrometer (AB Sciex, United States) with an electrospray ionization source. Multiple reaction monitoring in the positive ionization mode was applied to measure analytes. Chromatographic separation was performed on a Acquity BEH C18 column (50 × 2.1 mm i. d., 1.7 μm, Waters, United States). The mobile phase was composed of 0.1% FA in water (A) and 0.1% FA in acetonitrile (B), and the flow rate was 0.4 ml/min. The elution conditions were the following linear gradient: 0–0.4 min: 90% A, 0.4–0.6 min: 60% A, 0.6–1.2 min: 10% A, 1.2–2.2 min: 10% A, 2.2–2.3 min: 90% A, 2.3–3.0 min: 90% A. The optimized parameters were as follows: the spray voltage 5.5 kV, source temperature 550 °C, pressure of source gas 1 and gas 2: 55psi, pressure of curtain gas: 30psi, and the DP, EP and CE voltage was 30,6 and 40 eV, respectively.

T1 sequence (Q01827 whole entry): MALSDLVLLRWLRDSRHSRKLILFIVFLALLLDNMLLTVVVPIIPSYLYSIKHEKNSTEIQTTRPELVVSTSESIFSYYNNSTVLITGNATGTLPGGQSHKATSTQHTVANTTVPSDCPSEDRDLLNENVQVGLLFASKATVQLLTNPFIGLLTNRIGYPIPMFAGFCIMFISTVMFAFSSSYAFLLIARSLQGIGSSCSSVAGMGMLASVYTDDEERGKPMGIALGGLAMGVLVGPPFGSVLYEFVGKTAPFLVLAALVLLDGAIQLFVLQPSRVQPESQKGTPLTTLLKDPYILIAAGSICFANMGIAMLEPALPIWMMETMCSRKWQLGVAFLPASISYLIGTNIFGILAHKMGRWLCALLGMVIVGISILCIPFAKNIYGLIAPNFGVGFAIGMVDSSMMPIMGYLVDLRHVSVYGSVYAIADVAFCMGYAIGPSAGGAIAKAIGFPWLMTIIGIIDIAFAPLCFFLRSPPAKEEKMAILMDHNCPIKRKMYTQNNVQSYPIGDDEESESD

COc1cc2c(cc1OCC(F)(F)F)CCN1CC(CC(C)C)C(O)CC21 (single isomer, unassigned; (+)) [(+)-13e, (+)-9-(2,2,2-trifluoroethoxy)-α-dihydrotetrabenazine]
affinity for VMAT2 stronger than that of HTBZ (rat brain VMAT2): ~3 fold
starting effective dose ([1]; SD rats, first dose with significant inhibition of locomotor activity vs NS (p < 0.05)): 0.32 µmol/kg
reduction rate (RR) of locomotion ([1]; SD rats, single oral gavage 0.32 μmol/kg): 58.6%
reduction rate (RR) of locomotion ([1]; SD rats, single oral gavage 1.3 μmol/kg): 95.5%
PD effect stronger than that of VBZ in vivo ([1]; rat locomotor activity): approximately 4 fold
V, V/F ([2]; dog, single intravenous dose 0.6 μmol/kg): 5.4 ± 1.1 L/kg
clearance ([2]; dog, single intravenous dose 0.6 μmol/kg, read-out: Cl, Cl/F (converted)): 23.3 mL/min/kg
V, V/F ([2]; dog, single oral dose 3 μmol/kg): 18.8 ± 9.2 L/kg
Cmax smaller than that of VBZ ([2]; dogs, oral administration at an equivalent dose): 2.9 fold
Cmax larger than that of HTBZ ([2]; dogs, oral administration at an equivalent dose (HTBZ from VBZ)): 7.7 fold
bioavailability ([2]; male, beagle, dog, plasma, dogs, oral 3 μmol/kg vs intravenous 0.6 μmol/kg, read-out: absolute oral bioavailability): 75.9%
CL/F ([2]; male, beagle, plasma, 3 umol/kg, dog, single oral dose 3 μmol/kg): 31.7 mL/min/kg

Source: PMC8689140 (Frontiers in Pharmacology, 2021)
